Data taken from patent publication US20170189504A1, “NOVEL PEPTIDES AND COMBINATION OF PEPTIDES FOR USE IN IMMUNOTHERAPY AGAINST VARIOUS CANCERS” (immatics biotechnologies GmbH, priority 2015, published 2017).

What was measured:
CD8+ T cells = assay: In vitro immunogenicity: T-cell priming with aAPCs loaded with peptide/MHC complexes and anti-CD28 antibody, pMHC multimer readout (Tables 19A, 19B); format: cell-based, human; conditions: in vitro immunogenicity of HLA class I peptides, pMHC multimer readout after priming of CD8+ T cells
Method: In an aspect, the peptides are pre-screened for immunogenicity before being included in the warehouse. By way of example, and not limitation, the immunogenicity of the peptides included in the warehouse is determined by a method comprising in vitro T-cell priming through repeated stimulations of CD8+ T cells from healthy donors with artificial antigen presenting cells loaded with peptide/MHC complexes and anti-CD28 antibody.
In order to obtain information regarding the immunogenicity of the TUMAPs of the present invention, the inventors performed investigations using an in vitro T-cell priming assay based on repeated stimulations of CD8+ T cells with artificial antigen presenting cells (aAPCs) loaded with peptide/MHC complexes and anti-CD28 antibody.
In order to perform in vitro stimulations by artificial antigen presenting cells loaded with peptide-MHC complex (pMHC) and anti-CD28 antibody, the inventors first isolated CD8+ T cells from fresh HLA-A*02 leukapheresis products via positive selection using CD8 microbeads (Miltenyi Biotec, Bergisch-Gladbach, Germany) of healthy donors obtained from the University clinics Mannheim, Germany, after informed consent.
PBMCs and isolated CD8+ lymphocytes were incubated in T-cell medium (TCM) until use consisting of RPMI-Glutamax (Invitrogen, Karlsruhe, Germany) supplemented with 10% heat inactivated human AB serum (PAN-Biotech, Aidenbach, Germany), 100 U/ml Penicillin/100 μg/ml Streptomycin (Cambrex, Cologne, Germany), 1 mM sodium pyruvate (CC Pro, Oberdorla, Germany), 20 μg/ml Gentamycin (Cambrex). 2.5 ng/ml IL7 (PromoCell, Heidelberg, Germany) and 10 U/ml IL-2 (Novartis Pharma, Nurnberg, Germany) were also added to the TCM at this step.
Generation of pMHC/anti-CD28 coated beads, T-cell stimulations and readout was performed in a highly defined in vitro system using four different pMHC molecules per stimulation condition and 8 different pMHC molecules per readout condition.
The purified co-stimulatory mouse IgG2a anti human CD28 Ab 9.3 (Jung et al., 1987) was chemically biotinylated using Sulfo-N-hydroxysuccinimidobiotin as recommended by the manufacturer (Perbio, Bonn, Germany). Beads used were 5.6 μm diameter streptavidin coated polystyrene particles (Bangs Laboratories, Illinois, USA).
pMHC used for positive and negative control stimulations were A*0201/MLA-001 (peptide […] (SEQ ID NO. 303) from modified Melan-A/MART-1) and A*0201/DDX5-001 ([…] from DDX5, SEQ ID NO. 304), respectively.
800.000 beads/200 μl were coated in 96-well plates in the presence of 4×12.5 ng different biotin-pMHC, washed and 600 ng biotin anti-CD28 were added subsequently in a volume of 200 μl. Stimulations were initiated in 96-well plates by co-incubating […] CD8+ T cells with 2×10^5 washed coated beads in 200 μl TCM supplemented with 5 ng/ml IL-12 (PromoCell) for 3 days at 37° C. Half of the medium was then exchanged by fresh TCM supplemented with 80 U/ml IL-2 and incubating was continued for 4 days at 37° C. This stimulation cycle was performed for a total of three times. For the pMHC multimer readout using 8 different pMHC molecules per condition, a two-dimensional combinatorial coding approach was used as previously described (Andersen et al., 2012) with minor modifications encompassing coupling to 5 different fluorochromes. Finally, multimeric analyses were performed by staining the cells with Live/dead near IR dye (Invitrogen, Karlsruhe, Germany), CD8-FITC antibody clone SK1 (BD, Heidelberg, Germany) and fluorescent pMHC multimers. For analysis, a BD LSRII SORP cytometer equipped with appropriate lasers and filters was used. Peptide specific cells were calculated as percentage of total CD8+ cells. Evaluation of multimeric analysis was done using the FlowJo software (Tree Star, Oreg., USA). In vitro priming of specific multimer+ CD8+ lymphocytes was detected by comparing to negative control stimulations.

HLA-A*24 = assay: MHC binding assay, UV-ligand exchange with β2m ELISA, HLA-A*24 (Table 21); set-up: species or system human; conditions: binding to HLA-A*24 ranged by peptide exchange yield (UV-ligand exchange, β2m ELISA)
Source text: Candidate peptides for T cell based therapies according to the present invention were further tested for their MHC binding capacity (affinity). The individual peptide-MHC complexes were produced by UV-ligand exchange, where a UV-sensitive peptide is cleaved upon UV-irradiation, and exchanged with the peptide of interest as analyzed. Only peptide candidates that can effectively bind and stabilize the peptide-receptive MHC molecules prevent dissociation of the MHC complexes. To determine the yield of the exchange reaction, an ELISA was performed based on the detection of the light chain ((β2m) of stabilized MHC complexes. The assay was performed as generally described in Rodenko et al. (Rodenko et al., 2006).
96 well MAXISorp plates (NUNC) were coated over night with 2 ug/ml streptavidin in PBS at room temperature, washed 4× and blocked for 1 h at 37° C. in 2% BSA containing blocking buffer. Refolded HLA-A*02:01/MLA-001 monomers served as standards, covering the range of 15-500 ng/ml. Peptide-MHC monomers of the UV-exchange reaction were diluted 100 fold in blocking buffer. Samples were incubated for 1 h at 37° C., washed four times, incubated with 2 ug/ml HRP conjugated anti-β2m for 1 h at 37° C., washed again and detected with TMB solution that is stopped with […]. Absorption was measured at 450 nm. Candidate peptides that show a high exchange yield (preferably higher than 50%, most preferred higher than 75%) are generally preferred for a generation and production of antibodies or fragments thereof, and/or T cell receptors or fragments thereof, as they show sufficient avidity to the MHC molecules and prevent dissociation of the MHC complexes.

Substance | Wells positive [%] (CD8+ T cells) | Peptide exchange (HLA-A*24)
268 (QYLGQIQHI; listed as Homo sapiens) [compound 268] | + (<20% = +) | +++ (50%-75% = +++)
173 (IYSWILDHF; listed as Homo sapiens) [compound 173] | ++ (20%-49% = ++) | ++++ (≧75% = ++++)
163 (DYLKGLASF; listed as Homo sapiens) [compound 163] | + (<20% = +) | ++++ (≧75% = ++++)
168 (KYQDILETI; listed as Homo sapiens) [compound 168] | ++ (20%-49% = ++) | ++++ (≧75% = ++++)
165 (DYTTWTALL; listed as Homo sapiens) [compound 165] | + (<20% = +) | ++++ (≧75% = ++++)
207 (AYVVFVSTL; listed as Homo sapiens) [compound 207] | + (<20% = +) | ++ (20%-49% = ++)
199 (RYAEEVGIF; listed as Homo sapiens) [compound 199] | ++ (20%-49% = ++) | +++ (50%-75% = +++)
197 (EYSLFPGQVVI; listed as Homo sapiens) [compound 197] | + (<20% = +) | +++ (50%-75% = +++)
167 (NYINRILKL; listed as Homo sapiens) [compound 167] | + (<20% = +) | ++++ (≧75% = ++++)
196 (LYIDRPLPYL; listed as Homo sapiens) [compound 196] | ++++ (≧70% = ++++) | +++ (50%-75% = +++)
158 (HYSQELSLLYL; listed as Homo sapiens) [compound 158] | + (<20% = +) | ++++ (≧75% = ++++)
281 (PYRLIFEKF; listed as Homo sapiens) [compound 281] | +++ (50%-69% = +++) | ++ (20%-49% = ++)
200 (YYGPSLFLL; listed as Homo sapiens) [compound 200] | ++ (20%-49% = ++) | +++ (50%-75% = +++)
160 (VYTLDIPVL; listed as Homo sapiens) [compound 160] | ++ (20%-49% = ++) | ++++ (≧75% = ++++)
176 (EYNQWFTKL; listed as Homo sapiens) [compound 176] | +++ (50%-69% = +++) | +++ (50%-75% = +++)
218 (YYKSTSSAF; listed as Homo sapiens) [compound 218] | + (<20% = +) | +++ (50%-75% = +++)
204 (TYELRYFQI; listed as Homo sapiens) [compound 204] | + (<20% = +) | ++++ (≧75% = ++++)
269 (YFIDSTNLKTHF; listed as Homo sapiens) [compound 269] | + (<20% = +) | +++ (50%-75% = +++)
285 (HYPPVQVLF; listed as Homo sapiens) [compound 285] | + (<20% = +) | +++ (50%-75% = +++)
161 (IYLVSIPEL; listed as Homo sapiens) [compound 161] | ++ (20%-49% = ++) | ++++ (≧75% = ++++)
169 (AYTLIAPNI; listed as Homo sapiens) [compound 169] | +++ (50%-69% = +++) | +++ (50%-75% = +++)
166 (YYVESGKLF; listed as Homo sapiens) [compound 166] | +++ (50%-69% = +++) | ++++ (≧75% = ++++)
162 (VFTRVSSFL; listed as Homo sapiens) [compound 162] | ++ (20%-49% = ++) | +++ (50%-75% = +++)
222 (TFSVSSHLF; listed as Homo sapiens) [compound 222] | ++ (20%-49% = ++) | +++ (50%-75% = +++)
159 (LYNKGFIYL; listed as Homo sapiens) [compound 159] | ++++ (≧70% = ++++) | ++++ (≧75% = ++++)
